Experimental data from patent US12435031B2, “Compound with broad-spectrum antibacterial activity and its antibacterial composition” (CHINA AGRICULTURAL UNIVERSITY, priority 2023, dated 2025).
Values after ≈ are worked out from the molar mass of the structure shown. Like-named read-outs stand apart in the source and are kept apart here.

Tested on: Clostridium perfringens
Experiment: microbe, parasite or virus in culture
Format: cell-based
Details: Clostridium perfringens

## O=C(Nc1cc(Cl)cc(Br)c1)c1cc(Cl)ccc1O [BAB142]
  MIC50: 16 µg/mL (≈ 44.3 µM)

## Cc1cc(C(F)(F)F)ccc1NC(=O)c1cc(Cl)ccc1O [BAB151]
  MIC50: 8 µg/mL (≈ 24.3 µM)

## O=C(Nc1ccc(Cl)c(C(F)(F)F)c1Cl)c1cc(Cl)ccc1O [BAB160]
  MIC50: 8 µg/mL (≈ 20.8 µM)

## O=C(Nc1cc(F)c(Cl)c(Cl)c1)c1cc(Cl)ccc1O [BAB166]
  MIC50: 32 µg/mL (≈ 95.6 µM)

## CO/N=C(\C(=O)N[C@@H]1C(=O)N2C(C(=O)O)=C(CSC(=O)c3ccco3)CS[C@H]12)c1csc(N)n1 [CEF, Ceftiofur]
read-out: MIC value against Clostridium perfringens, strain A3-1 (A-type)
  MIC: ≤ 0.25 µg/mL
read-out: MIC value against Clostridium perfringens, strain A3-2 (A-type)
  MIC: ≤ 0.25 µg/mL
read-out: MIC value against Clostridium perfringens, strain A57-1 (A-type)
  MIC: ≤ 0.25 µg/mL
read-out: MIC value against Clostridium perfringens, strain B4 (B-type)
  MIC: ≤ 0.25 µg/mL
read-out: MIC value against Clostridium perfringens, strain B5 (B-type)
  MIC: ≤ 0.25 µg/mL
read-out: MIC value against Clostridium perfringens, strain C3 (C-type)
  MIC: 1 µg/mL (≈ 1.91 µM)
read-out: MIC value against Clostridium perfringens, strain C8 (C-type)
  MIC: ≤ 0.25 µg/mL
read-out: MIC value against Clostridium perfringens, strain C59-1 (C-type)
  MIC: ≤ 0.25 µg/mL
read-out: MIC value against Clostridium perfringens, strain D14B (D-type)
  MIC: ≤ 0.25 µg/mL
read-out: MIC value against Clostridium perfringens, strain F5-2 (F-type)
  MIC: ≤ 0.25 µg/mL
read-out: MIC value against Clostridium perfringens, strain F6-1 (F-type)
  MIC: ≤ 0.25 µg/mL
read-out: MIC value against Clostridium perfringens, strain F6-2 (F-type)
  MIC: ≤ 0.25 µg/mL
read-out: MIC value against Clostridium perfringens, strain F6-2-1 (F-type)
  MIC: ≤ 0.25 µg/mL
read-out: MIC value against Clostridium perfringens, strain F6-2-2 (F-type)
  MIC: ≤ 0.25 µg/mL
read-out: MIC value against Clostridium perfringens, strain F7-1 (F-type)
  MIC: ≤ 0.25 µg/mL
read-out: MIC value against Clostridium perfringens, strain F8-1 (F-type)
  MIC: ≤ 0.25 µg/mL
read-out: MIC value against Clostridium perfringens, strain H12-1 (H-type)
  MIC: ≤ 0.25 µg/mL
read-out: MIC value against Clostridium perfringens, strain H12-2 (H-type)
  MIC: ≤ 0.25 µg/mL
read-out: MIC value against Clostridium perfringens, strain H13-1 (H-type)
  MIC: ≤ 0.25 µg/mL
read-out: MIC value against Clostridium perfringens, strain H14-1 (H-type)
  MIC: ≤ 0.25 µg/mL
read-out: MIC value against Clostridium perfringens, strain H14-2 (H-type)
  MIC: ≤ 0.25 µg/mL
read-out: MIC value against Clostridium perfringens, strain H14-4 (H-type)
  MIC: ≤ 0.25 µg/mL
read-out: MIC value against Clostridium perfringens, strain H15-1 (H-type)
  MIC: ≤ 0.25 µg/mL
read-out: MIC value against Clostridium perfringens, strain H15-2 (H-type)
  MIC: ≤ 0.25 µg/mL
read-out: MIC value against Clostridium perfringens, strain H15-3 (H-type)
  MIC: ≤ 0.25 µg/mL
read-out: MIC value against Clostridium perfringens, strain H16 (H-type)
  MIC: ≤ 0.25 µg/mL
